Laboratory results reported in patent EP4722201A1, “3-PHENYLISOXAZOLINE-5-CARBOXAMIDE COMPOUND, AND PREPARATION METHOD THEREFOR, HERBICIDAL COMPOSITION THEREOF AND USE THEREOF” (Jiangsu Flag Chemical Industry Co., Ltd, priority 2023, dated 2024).

Columns and labels:
Assay in all cases: Indoor herbicide activity determination, Seed Treatment; pre-emergence (soil spray)
Assay type in all cases: in vivo
Aegilops tauschii = settings: read-out: Herbicidal activities (inhibition rate) Aegilops tauschii; for inhibition at 60 g/ha: 60 g a.i./ha; for inhibition at 120 g/ha: 120 g a.i./ha
Method in brief: (§1)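 Readout is percent inhibition of fresh weight relative to control plants, determined 21 days after treatment. Soil was sprayed one day after sowing, in a spray tower at 300 mm height and 390 mL/min nozzle flow, onto sandy soil of pH 6.1 with 1% organic matter.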

Alopecurus japonicus = tested on: Alopecurus japonicus
Method in brief: as §1

Alopecurus myosuroides = tested on: Alopecurus myosuroides
Method in brief: as §1

Cyperus iria = settings: read-out: Herbicidal activities (inhibition rate) Cyperus iria; for inhibition at 60 g/ha: 60 g a.i./ha; for inhibition at 120 g/ha: 120 g a.i./ha
Method in brief: as §1

Digitaria sanguinalis = settings: read-out: Herbicidal activities (inhibition rate) Digitaria sanguinalis; for inhibition at 60 g/ha: 60 g a.i./ha; for inhibition at 120 g/ha: 120 g a.i./ha
Method in brief: as §1

Eclipta prostrata = settings: read-out: Herbicidal activities (inhibition rate) Eclipta prostrata; for inhibition at 60 g/ha: 60 g a.i./ha; for inhibition at 120 g/ha: 120 g a.i./ha
Method in brief: as §1

Eleusine indica = tested on: Eleusine indica
Method in brief: as §1

Leptochloa chinensis = tested on: Leptochloa chinensis
Method in brief: as §1

Lolium multiflorum = tested on: Lolium multiflorum
Method in brief: as §1

Row | Structure (SMILES) | inhibition at 120 g/ha (Aegilops tauschii) | Herbicidal activities, Alopecurus japonicus (inhibition rate class) (Alopecurus japonicus; Dosage 240 g a.i./ha) | Herbicidal activities, Alopecurus myosuroides (inhibition rate class) (Alopecurus myosuroides; Dosage 240 g a.i./ha) | inhibition at 120 g/ha (Cyperus iria) | inhibition at 120 g/ha (Digitaria sanguinalis) | inhibition at 120 g/ha (Eclipta prostrata) | Herbicidal activities, Eleusine indica (inhibition rate class) (Eleusine indica; Dosage 240 g a.i./ha) | Herbicidal activities, Leptochloa chinensis (inhibition rate class) (Leptochloa chinensis; Dosage 240 g a.i./ha) | Herbicidal activities, Lolium multiflorum (inhibition rate class) (Lolium multiflorum; Dosage 240 g a.i./ha) | Herbicidal activity (inhibition rate class), Alopecurus japonicus (Alopecurus japonicus; Dosage 240 g a.i./ha) | Herbicidal activity (inhibition rate class), Alopecurus myosuroides (Alopecurus myosuroides; Dosage 240 g a.i./ha) | Herbicidal activity (inhibition rate class), Eleusine indica (Eleusine indica; Dosage 240 g a.i./ha) | Herbicidal activity (inhibition rate class), Leptochloa chinensis (Leptochloa chinensis; Dosage 240 g a.i./ha) | Herbicidal activity (inhibition rate class), Lolium multiflorum (Lolium multiflorum; Dosage 240 g a.i./ha) | further results
1 | O=C(O)[C@@H]1C=C[C@H](NC(=O)[C@@]2(C(F)(F)F)CC(c3cc(F)cc(C(F)(F)F)c3)=NO2)C1 [I-516] | – | – | – | – | – | – | – | – | – | – | – | – | – | – | inhibition at 60 g/ha (Aegilops tauschii): 80 to 100%; Herbicidal activity (inhibition rate class), Alopecurus japonicus (Alopecurus japonicus; Dosage 120 g a.i./ha): A (A indicates that the inhibition rate was greater than or equal to 80% to 100%); Herbicidal activity (inhibition rate class), Alopecurus myosuroides (Alopecurus myosuroides; Dosage 120 g a.i./ha): A (A indicates that the inhibition rate was greater than or equal to 80% to 100%); inhibition at 60 g/ha (Cyperus iria): 80 to 100%; inhibition at 60 g/ha (Digitaria sanguinalis): 80 to 100%; inhibition at 60 g/ha (Eclipta prostrata): 60 to 80%; Herbicidal activity (inhibition rate class), Eleusine indica (Eleusine indica; Dosage 120 g a.i./ha): A (A indicates that the inhibition rate was greater than or equal to 80% to 100%); Herbicidal activity (inhibition rate class), Leptochloa chinensis (Leptochloa chinensis; Dosage 120 g a.i./ha): A (A indicates that the inhibition rate was greater than or equal to 80% to 100%); Herbicidal activity (inhibition rate class), Lolium multiflorum (Lolium multiflorum; Dosage 120 g a.i./ha): A (A indicates that the inhibition rate was greater than or equal to 80% to 100%)
2 | C=CC1(C(=O)N[C@H]2CO[C@@H](C(=O)OC)C2)CC(c2cc(Cl)cc(OC(F)(F)F)c2)=NO1 (mixture of isomers) [I-372] | 80 to 100% | A (A indicates that the inhibition rate was greater than or equal to 80% to 100%) | A (A indicates that the inhibition rate was greater than or equal to 80% to 100%) | 80 to 100% | 80 to 100% | 80 to 100% | A (A indicates that the inhibition rate was greater than or equal to 80% to 100%) | A (A indicates that the inhibition rate was greater than or equal to 80% to 100%) | A (A indicates that the inhibition rate was greater than or equal to 80% to 100%) | – | – | – | – | – | –
3 | C#C[C@@H](C)OC(=O)[C@@H]1C=C[C@H](NC(=O)[C@@]2(C(F)(F)F)CC(c3cc(F)cc(C(F)(F)F)c3)=NO2)C1 [I-521] | – | – | – | – | – | – | – | – | – | – | – | – | – | – | inhibition at 60 g/ha (Aegilops tauschii): 80 to 100%; Herbicidal activity (inhibition rate class), Alopecurus japonicus (Alopecurus japonicus; Dosage 120 g a.i./ha): A (A indicates that the inhibition rate was greater than or equal to 80% to 100%); Herbicidal activity (inhibition rate class), Alopecurus myosuroides (Alopecurus myosuroides; Dosage 120 g a.i./ha): A (A indicates that the inhibition rate was greater than or equal to 80% to 100%); inhibition at 60 g/ha (Cyperus iria): 80 to 100%; inhibition at 60 g/ha (Digitaria sanguinalis): 80 to 100%; inhibition at 60 g/ha (Eclipta prostrata): 80 to 100%; Herbicidal activity (inhibition rate class), Eleusine indica (Eleusine indica; Dosage 120 g a.i./ha): A (A indicates that the inhibition rate was greater than or equal to 80% to 100%); Herbicidal activity (inhibition rate class), Leptochloa chinensis (Leptochloa chinensis; Dosage 120 g a.i./ha): A (A indicates that the inhibition rate was greater than or equal to 80% to 100%); Herbicidal activity (inhibition rate class), Lolium multiflorum (Lolium multiflorum; Dosage 120 g a.i./ha): A (A indicates that the inhibition rate was greater than or equal to 80% to 100%)
4 | C=CC1(C(=O)N[C@H]2CO[C@@H](C(=O)OC)C2)CC(c2cc(F)cc(C(F)(F)F)c2)=NO1 (mixture of isomers) [I-368] | 80 to 100% | A (A indicates that the inhibition rate was greater than or equal to 80% to 100%) | A (A indicates that the inhibition rate was greater than or equal to 80% to 100%) | 60 to 80% | 60 to 80% | 40 to 60% | A (A indicates that the inhibition rate was greater than or equal to 80% to 100%) | A (A indicates that the inhibition rate was greater than or equal to 80% to 100%) | A (A indicates that the inhibition rate was greater than or equal to 80% to 100%) | – | – | – | – | – | –
5 | COC(=O)[C@@H]1C=C[C@H](NC(=O)C2(C)CC(c3cc(F)cc(OC(F)F)c3)=NO2)C1 (stereo partly drawn) [I-505] | 80 to 100% | – | – | 80 to 100% | 80 to 100% | 80 to 100% | – | – | – | A (A indicates that the inhibition rate was greater than or equal to 80% to 100%) | A (A indicates that the inhibition rate was greater than or equal to 80% to 100%) | B (B indicates that the inhibition rate was greater than or equal to 60% to less than 80%) | A (A indicates that the inhibition rate was greater than or equal to 80% to 100%) | A (A indicates that the inhibition rate was greater than or equal to 80% to 100%) | –
6 | CC1(C(=O)N[C@H]2C=C[C@@H](C(=O)O)C2)CC(c2cc(Cl)cc(OC(F)(F)F)c2)=NO1 (stereo partly drawn) [I-485] | 80 to 100% | – | – | 80 to 100% | 60 to 80% | 80 to 100% | – | – | – | A (A indicates that the inhibition rate was greater than or equal to 80% to 100%) | A (A indicates that the inhibition rate was greater than or equal to 80% to 100%) | A (A indicates that the inhibition rate was greater than or equal to 80% to 100%) | A (A indicates that the inhibition rate was greater than or equal to 80% to 100%) | A (A indicates that the inhibition rate was greater than or equal to 80% to 100%) | –
7 | COC(=O)[C@@H]1C=C[C@H](NC(=O)C2(C)CC(c3cc(Cl)cc(C(F)(F)F)c3)=NO2)C1 (stereo partly drawn) [I-511] | 80 to 100% | – | – | 80 to 100% | 80 to 100% | 80 to 100% | – | – | – | A (A indicates that the inhibition rate was greater than or equal to 80% to 100%) | A (A indicates that the inhibition rate was greater than or equal to 80% to 100%) | A (A indicates that the inhibition rate was greater than or equal to 80% to 100%) | A (A indicates that the inhibition rate was greater than or equal to 80% to 100%) | A (A indicates that the inhibition rate was greater than or equal to 80% to 100%) | –
8 | CSCCOC(=O)[C@@H]1C=C[C@H](NC(=O)C2(C)CC(c3cc(Cl)cc(OC(F)(F)F)c3)=NO2)C1 (stereo partly drawn) [I-487] | 80 to 100% | – | – | 80 to 100% | 60 to 80% | 80 to 100% | – | – | – | A (A indicates that the inhibition rate was greater than or equal to 80% to 100%) | A (A indicates that the inhibition rate was greater than or equal to 80% to 100%) | A (A indicates that the inhibition rate was greater than or equal to 80% to 100%) | A (A indicates that the inhibition rate was greater than or equal to 80% to 100%) | A (A indicates that the inhibition rate was greater than or equal to 80% to 100%) | –
9 | C=CC1(C(=O)N[C@H]2CO[C@@H](C(=O)OC)C2)CC(c2cc(Cl)cc(C(F)(F)F)c2)=NO1 (mixture of isomers) [I-371] | 80 to 100% | A (A indicates that the inhibition rate was greater than or equal to 80% to 100%) | A (A indicates that the inhibition rate was greater than or equal to 80% to 100%) | 60 to 80% | 60 to 80% | 40 to 60% | A (A indicates that the inhibition rate was greater than or equal to 80% to 100%) | A (A indicates that the inhibition rate was greater than or equal to 80% to 100%) | A (A indicates that the inhibition rate was greater than or equal to 80% to 100%) | – | – | – | – | – | –
10 | C=CC1(C(=O)N[C@H]2CO[C@@H](C(=O)OC)C2)CC(c2cc(F)cc(OC(F)(F)F)c2)=NO1 (mixture of isomers) [I-369] | 80 to 100% | A (A indicates that the inhibition rate was greater than or equal to 80% to 100%) | A (A indicates that the inhibition rate was greater than or equal to 80% to 100%) | 60 to 80% | 60 to 80% | 40 to 60% | A (A indicates that the inhibition rate was greater than or equal to 80% to 100%) | A (A indicates that the inhibition rate was greater than or equal to 80% to 100%) | A (A indicates that the inhibition rate was greater than or equal to 80% to 100%) | – | – | – | – | – | –
11 | CC1(C(=O)N[C@H]2C=C[C@@H](C(=O)OCCS(C)(=O)=O)C2)CC(c2cc(F)cc(OC(F)(F)F)c2)=NO1 (stereo partly drawn) [I-492] | 80 to 100% | – | – | 60 to 80% | 80 to 100% | 80 to 100% | – | – | – | A (A indicates that the inhibition rate was greater than or equal to 80% to 100%) | A (A indicates that the inhibition rate was greater than or equal to 80% to 100%) | A (A indicates that the inhibition rate was greater than or equal to 80% to 100%) | A (A indicates that the inhibition rate was greater than or equal to 80% to 100%) | A (A indicates that the inhibition rate was greater than or equal to 80% to 100%) | –
